These results are taken from US20230339878A1, “SLC26A3 INHIBITORS AND USE THEREOF” (THE REGENTS OF THE UNIVERSITY OF CALIFORNIA, priority 2018, published 2023).

Data set [1] addresses T1, murine slc26a3 (Mus musculus, UniProt Q9WVC8).
T1 construct: host or cells: Fischer rat thyroid (FRT) cells expressing YFP, clonal line FRT-YFP-slc26a3
T1 sequence (Q9WVC8 1-757): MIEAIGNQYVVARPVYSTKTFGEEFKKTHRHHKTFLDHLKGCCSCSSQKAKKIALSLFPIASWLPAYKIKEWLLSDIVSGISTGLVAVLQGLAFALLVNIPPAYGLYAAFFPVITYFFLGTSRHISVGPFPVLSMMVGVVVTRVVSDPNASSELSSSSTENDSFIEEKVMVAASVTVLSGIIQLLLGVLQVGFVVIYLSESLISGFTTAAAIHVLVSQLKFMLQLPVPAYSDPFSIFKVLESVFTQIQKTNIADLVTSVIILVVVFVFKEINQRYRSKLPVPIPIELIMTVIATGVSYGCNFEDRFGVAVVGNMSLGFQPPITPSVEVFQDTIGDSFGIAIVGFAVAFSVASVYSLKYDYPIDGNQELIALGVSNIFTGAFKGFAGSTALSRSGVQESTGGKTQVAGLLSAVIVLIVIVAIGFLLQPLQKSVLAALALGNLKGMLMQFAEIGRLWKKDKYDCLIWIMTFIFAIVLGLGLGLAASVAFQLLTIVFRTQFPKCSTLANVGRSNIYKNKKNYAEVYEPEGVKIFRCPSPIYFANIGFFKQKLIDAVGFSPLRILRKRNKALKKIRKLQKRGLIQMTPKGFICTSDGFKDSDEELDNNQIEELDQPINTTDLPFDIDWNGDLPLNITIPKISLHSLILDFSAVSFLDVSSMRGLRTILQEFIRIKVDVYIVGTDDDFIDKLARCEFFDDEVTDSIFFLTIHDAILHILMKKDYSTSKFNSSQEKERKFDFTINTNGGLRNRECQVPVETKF
In words: slc26a3-mediated Cl-/I- exchange, YFP fluorescence quenching in FRT-YFP-slc26a3 cells. It counts as cell-based. The procedure:
High-throughput screening to identify slc26a3 inhibitors using FRT-YFP- slc26a3 cells was done with a semi-automated Beckman Coulter (Indianapolis, IN) platform with FLUOstar OMEGA plate readers (BMG Labtech, Cary, NC), essentially as described for discovery of pendrin inhibitors. Initial screening was done of ~50,000 drug-like synthetic small molecules (ChemDiv, San Diego, CA) at a concentration of 25 µM using a Cl^-/I^- exchange protocol to assay slc26a3 function. Following initial screening, compound analogs were purchased (ChemDiv, San Diego, CA) to generate structure-activity data.
For the screening, FRT-YFP-slc26a3 cells were plated in 96-well black-walled, clear-bottom tissue culture plates (Corning Life Sciences, Tewksbury, MA) at a density of 20,000 cells/well and cultured for 48 hours until confluent. For screening, cells were washed twice in PBS and incubated for 10 min in 100 µl PBS containing test compounds prior to assay of slc26a3 function. Assays were done using a FLUOstar OMEGA plate reader (BMG Labtech, Cary, NC) over 12 s with initial fluorescence recorded over 1 s prior to addition of 100 µl NaI-substituted PBS (137 mM NaCl replaced by 137 mM NaI) to drive Cl^-/I^- exchange. The initial rate of Cl^-/I^- exchange was determined from fluorescence intensity by single exponential regression. All plates contained wells with negative (1 % DMSO) and positive (350 µM niflumic acid) controls.
Screening was done using an FRT cell line stably expressing murine slc26a3 and a halide-sensitive yellow fluorescent protein (FRT-YFP- slc26a3 cells). FRT cells were used because of their low intrinsic permeability to anions that are transported by slc26a3, and because of their good adherence and rapid growth on uncoated plastic. As diagrammed in FIG. 1A, slc26a3-mediated transport was assayed from the kinetics of YFP fluorescence quenching in response to extracellular addition of I^- to drive Cl^-/I^- exchange; transport inhibition reduces the rate of fluorescence decrease.

Data set [2] relates to loperamide-treated wild-type mice. Briefly: Loperamide-induced constipation model in wild-type mice. It counts as in vivo. The following applies: 5 mg/kg oral gavage 1 hour before loperamide, wild-type mice. The procedure: Female CD1 mice (age 8-10 weeks) were administered loperamide (0.3 mg/kg, intraperitoneally, Sigma-Aldrich) to produce constipation. Compound A1 (DRAinh-A250) (5 mg/kg, in saline containing vehicle (5% DMSO and 10% Kolliphor HS 15; Sigma-Aldrich)), tenapanor (5 mg/kg, in vehicle), both compounds (5 mg/kg each, in vehicle), or vehicle alone were administered by oral gavage 1 hour before loperamide. After loperamide injection, mice were placed individually in metabolic cages with ad libitum access to food and water. Stool samples were collected for 3 h, and total stool weight and number of fecal pellets were quantified. To measure stool water content, stool samples were dried at 80° C. for 24 h and water content was calculated as [wet weight-dry weight]/wet weight. Similar studies were done in cystic fibrosis (CF) mice (ΔF508 homozygous) lacking functional CFTR.
Constipation Model in MiceDRAinh-A260 and DRAinh-A270 were tested in a loperamide-induced constipation model in mice. Female CD1 mice (age 8-10 weeks) were administered loperamide (0.3 mg/kg, intraperitoneally, in 5% ethanol in PBS, 0.1 mg/mL final concentration) to produce constipation and vehicle in control mice. DRAinh-A260 (5 mg/kg, in saline with 5% DMSO and 10% Kolliphor HS 15) or DRAinh-A270 (1, 3 or 10 mg/kg, in PBS with 5% DMSO and 20% (2- hydroxypropyl)-β-cyclodextrin) or vehicle alone were administered by oral gavage 1 hour before loperamide (FIG. 11A). After loperamide injection, mice were placed individually in metabolic cages with free access to food and water. Stool samples were collected for 3 hours, and total stool weight and number of fecal pellets were quantified. To measure stool water content, stool samples were dried at 80° C. for 24 hours and water content was calculated as [wet weight-dry weight]/wet weight.

The nature of data set [3]: Pharmacokinetics in mice, serum LC/MS. It counts as in vivo. The procedure: Pharmacokinetics of the Compound A1(DRAinh-A250) and analogs (DRAinh-A260 and DRAinh-A270) was determined in mice. After single dose intraperitoneal or oral administration (5 mg/kg for Compound A1 and DRAinh-A260, 10 mg/kg for DRAinh-A270), blood samples were collected via retro-orbital puncture at different time points and serum was separated by centrifugation. Compound concentrations were measured in serum using LC/MS. FIGS. 10A, 10B, 10C show the respective serum concentration of Compound A1 (FIG. 10A), DRAinh-A260 (FIG. 10B) and DRAinh-A270 (FIG. 10C) after single oral or intraperitoneal administration at zero time (n=3 mice per compound per administration route). Compound A1 had predicted therapeutic levels for at least 24 hours after single dose oral or intraperitoneal administration. […] (mean±SEM): 53.9±6.5% for Compound A1, 16.4±6.6% for DRAinh-A260, and 39.3±3.5% for DRAinh-A270.

Setting [4] is: representative Class A compounds, Table 3, read-out: IC50.

The term bioavailability denotes the share of a dose that reaches the circulation, judged against a reference dose that is usually intravenous.

Entries after “also recorded” stand apart in the source; their conditions may differ. Read-outs that look alike come from different tables or passages of the source.

For `Cc1c(CC(=O)O)c(=O)oc2c(C)c(OCc3ccc(Cl)c(Cl)c3)ccc12` [Compound A7], the IC50 in data set [1] (selected class A analogs, Table 1, Cl-/I- exchange, read-out: IC50) was found to be 1800 nM.

As to `Cc1c(CC(=O)O)c(=O)oc2c(C)c(OCc3cccc([N+](=O)[O-])c3)ccc12` [Compound A253], in data set [1] (setting [4]), the IC50 is 500 nM.

As to `Cc1c(CC(=O)O)c(=O)oc2c(C)c(OCc3cccc(C4CC4)c3)ccc12` [Compound A261], the IC50 in data set [1] (setting [4]) worked out at 70 nM.

Take `Cc1c(CC(=O)O)c(=O)oc2c(C)c(OCc3cc(C(F)(F)F)cc(C(F)(F)F)c3)ccc12` [Compound A263]: the IC50 in data set [1] (setting [4]) amounted to 15000 nM.

Take `Cc1c(CC(=O)O)c(=O)oc2c(C)c(OCc3cc(C(F)(F)F)ccc3F)ccc12` [Compound A266]: the IC50 in data set [1] (setting [4]) worked out at 100 nM.

For the compound `Cc1c(CC(=O)O)c(=O)oc2c(C)c(OCc3ccccc3I)ccc12` [Compound A269], the IC50 in data set [1] (setting [4]) worked out at 4500 nM.

With `CCCCCCOc1ccc2c(C)c(CC(=O)O)c(=O)oc2c1C` [Compound A278], the IC50 in data set [1] (setting [4]) came to 1500 nM.

With `Cc1c(CC(=O)O)c(=O)oc2c(C)c(OC3CCCC3)ccc12` [Compound A279], in data set [1] (setting [4]), the IC50 was determined as 4500 nM.

For the compound `Cc1c(CC(=O)O)c(=O)oc2c(C)c(OCC3CCC3)ccc12` [Compound A280], the IC50 in data set [1] (setting [4]) was found to be 3400 nM.

Take `Cc1c(CC(=O)O)c(=O)oc2c(C)c(OCC3CCCC3)ccc12` [Compound A281]: in data set [1] (setting [4]), the IC50 was determined as 1800 nM.

On to `Cc1c(CC(=O)O)c(=O)oc2c(C)c(OCc3ccc(C(F)(F)F)o3)ccc12` [Compound A286], for which the IC50 in data set [1] (setting [4]) stood at 300 nM.

As to `Cc1c(CC(=O)O)c(=O)oc2c(C)c(OCc3cccc(C(F)(F)F)c3)ccc12` [DRAinh-A260], in data set [1] (setting [4]), the IC50 came out at 25 nM. The “three-hour stool weight, number of pellets and stool water content” value in data set [2] is “improving stool weight, pellet number and water content; also recorded: improves 3-hour stool weight, pellet number and water content”. In data set [3] (5 mg/kg (A1, A260) or 10 mg/kg (A270), mice), this compound returned an oral bioavailability of 16%. For the same compound, the “serum level time course” value in data set [3] (5 mg/kg single dose oral or intraperitoneal) is recorded as “high serum levels initially; also recorded: almost complete disappearance of compound from serum at 16 hours”. In addition, the bioavailability in data set [3] (mouse, serum, po, 5 mg/kg (A1, A260) or 10 mg/kg (A270), mice, n=3, read-out: oral bioavailability (mean±SEM)) came out at 16.4 ± 6.6%.

`O=C(O)c1cccnc1Nc1cccc(C(F)(F)F)c1` [niflumic acid, reference compound]: the “inhibition of slc26a3, positive control” value in data set [1] (350 µM) was “strongly inhibited”. Besides, the IC50 in data set [1] (read-out: IC50 for inhibition of slc26a3-mediated Cl-/I- exchange) was about 60000 nM.
